Measurements taken from patent US10676446B2, “Bicyclic quinazolinone derivatives” (Hoffmann-La Roche Inc., priority 2015, dated 2020).

Target: human ATX (autotaxin, ENPP2), His-tagged (Homo sapiens (Human), UniProt Q13822)
Assay: Human ATX enzyme inhibition assay (fluorescence quenching, MR121 substrate)
Format: biochemical
Conditions: 30 nM ATX, 1 μM MR121 substrate, 30° C., pH 8.0
Method in brief: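 His-tagged human ATX (30 nM final) preincubated 15 min at 30 °C with serially diluted compound in Tris-HCl pH 8.0 buffer with Ca2+, Mg2+ and 0.01% Triton X-100. MR121-labelled fluorescence-quenched substrate then added (1 μM final) for a further 15 min at 30 °C; fluorescence read-out.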

| SMILES | IC50 [nM] |
| --- | --- |
| CC(=O)N1CC2CC1CC2c1ccc2ncn(CC(=O)NCc3ccc(Cl)c(Cl)c3)c(=O)c2c1 (centres unmarked) [Example 147, 2-[6-[2-Acetyl-2-azabicyclo[2.2.1]heptan-5-yl]-4-oxoquinazolin-3-yl]-N-[(3,4-dichlorophenyl)methyl]acetamide] | 140 |
| CC(=O)N1CCN(c2ccc3ncn(C(C)C(=O)NCc4ccc(Cl)c(Cl)c4)c(=O)c3c2)CC1 (centres unmarked) [Example 148, 2-[6-(4-Acetylpiperazin-1-yl)-4-oxoquinazolin-3-yl]-N-[(3,4-dichlorophenyl)methyl]propanamide] | 15 |
| CC(=O)N1CCN(c2ccc3ncn(C(C)C(=O)N(C)Cc4ccc(Cl)c(Cl)c4)c(=O)c3c2)CC1 (centres unmarked) [Example 149, 2-[6-(4-Acetylpiperazin-1-yl)-4-oxoquinazolin-3-yl]-N-[(3,4-dichlorophenyl)methyl]-N-methylpropanamide] | 39 |
| CC(=O)N1CCN(c2ccc3ncn(C4(C(=O)NCc5ccc(Cl)c(Cl)c5)CC4)c(=O)c3c2)CC1 [Example 150, 1-[6-(4-Acetylpiperazin-1-yl)-4-oxoquinazolin-3-yl]-N-[(3,4-dichlorophenyl)methyl]cyclopropane-1-carboxamide] | 91 |
| CC(=O)N1CCN(c2ccc3nc(C)n(CC(=O)NCc4ccc(Cl)c(Cl)c4)c(=O)c3c2)CC1 [Example 151, 2-[6-(4-Acetylpiperazin-1-yl)-2-methyl-4-oxoquinazolin-3-yl]-N-[(3,4-dichlorophenyl)methyl]acetamide] | 21 |
| CC(=O)N1CCN(c2ccc3[nH]c(=O)n(CC(=O)NCc4ccc(Cl)c(Cl)c4)c(=O)c3c2)CC1 [Example 152, 2-[6-(4-Acetylpiperazin-1-yl)-2,4-dioxo-1H-quinazolin-3-yl]-N-[(3,4-dichlorophenyl)methyl]acetamide] | 180 |
| COCCC(NC(=O)Cn1cnc2ccc(N3CCN(C(C)=O)CC3)cc2c1=O)c1ccc(Cl)c(Cl)c1 (centres unmarked) [Example 153, 2-[6-(4-Acetylpiperazin-1-yl)-4-oxoquinazolin-3-yl]-N-[1-(3,4-dichlorophenyl)-3-methoxypropyl]acetamide] | 36 |
| CN(Cc1ccc(C#N)c(Cl)c1)C(=O)Cn1cnc2ccc(C3CCN(C(=O)CC#N)CC3)cc2c1=O [Example 154, N-[(3-Chloro-4-cyanophenyl)methyl]-2-[6-[1-(2-cyanoacetyl)piperidin-4-yl]-4-oxoquinazolin-3-yl]-N-methylacetamide] | 2 |
| CN(Cc1ccc(C#N)c(Cl)c1)C(=O)Cn1cnc2ccc(C3CCN(C(=O)CCC#N)CC3)cc2c1=O [Example 155, N-[(3-Chloro-4-cyanophenyl)methyl]-2-[6-[1-(3-cyanopropanoyl)piperidin-4-yl]-4-oxoquinazolin-3-yl]-N-methylacetamide] | 153 |
| C[C@@H](O)C(=O)N1CCC(c2ccc3ncn(CC(=O)N(C)Cc4ccc(C#N)c(Cl)c4)c(=O)c3c2)CC1 [Example 156] | 561 |
| CC(C)[C@@H](O)C(=O)N1CCC(c2ccc3ncn(CC(=O)N(C)Cc4ccc(C#N)c(Cl)c4)c(=O)c3c2)CC1 [Example 157] | 10 |
| CO[C@H](C)C(=O)N1CCC(c2ccc3ncn(CC(=O)N(C)Cc4ccc(C#N)c(Cl)c4)c(=O)c3c2)CC1 [Example 158] | 2 |
| CO[C@@H](C)C(=O)N1CCC(c2ccc3ncn(CC(=O)N(C)Cc4ccc(C#N)c(Cl)c4)c(=O)c3c2)CC1 [Example 159] | 1 |
| COC(=O)N1CCC(c2ccc3ncn(CC(=O)N(C)Cc4ccc(C#N)c(Cl)c4)c(=O)c3c2)CC1 [Example 160, Methyl 4-[3-[2-[(3-chloro-4-cyanophenyl)methyl-methylamino]-2-oxoethyl]-4-oxoquinazolin-6-yl]piperidine-1-carboxylate] | 158 |
| CC(=O)N1CCC(c2ccc3ncn(CC(=O)NCc4cc(Cl)cc(C(F)(F)F)c4)c(=O)c3c2)CC1 [Example 161, 2-[6-(1-Acetylpiperidin-4-yl)-4-oxoquinazolin-3-yl]-N-[[3-chloro-5-(trifluoromethyl)phenyl]methyl]acetamide] | 28 |
| CC(=O)N1CCC(c2ccc3ncn(CC(=O)NCc4ccc(F)c(C(F)(F)F)c4)c(=O)c3c2)CC1 [Example 162] | 44 |
| CC(=O)N1CCC(c2ccc3ncn(CC(=O)NCc4ccc(Cl)c(C(F)(F)F)c4)c(=O)c3c2)CC1 [Example 163] | 1 |
| CC(=O)N1CCC(c2ccc3ncn(CC(=O)NCc4cc(Cl)cc(Cl)c4)c(=O)c3c2)CC1 [Example 164] | 25 |
| CN(Cc1ccc(Cl)c(Cl)c1)C(=O)Cn1cnc2ccc(C3CCN(C(=O)CS(N)(=O)=O)CC3)cc2c1=O [Example 165, N-[(3,4-Dichlorophenyl)methyl]-N-methyl-2-[4-oxo-6-[1-(2-sulfamoylacetyl)piperidin-4-yl]quinazolin-3-yl]acetamide] | 20 |
| COCCOCC(=O)N1CCC(c2ccc3ncn(CC(=O)N(C)Cc4ccc(Cl)c(Cl)c4)c(=O)c3c2)CC1 [Example 166] | 627 |
| CO[C@H](C)C(=O)N1CCC(c2ccc3ncn(CC(=O)N(C)Cc4ccc(Cl)c(Cl)c4)c(=O)c3c2)CC1 [Example 167] | 4 |
| CO[C@@H](C)C(=O)N1CCC(c2ccc3ncn(CC(=O)N(C)Cc4ccc(Cl)c(Cl)c4)c(=O)c3c2)CC1 [Example 168] | 27 |

| SMILES | IC50 [nM] |
| --- | --- |
| CC(C)[C@@H](O)C(=O)N1CCC(c2ccc3ncn(CC(=O)N(C)Cc4ccc(Cl)c(Cl)c4)c(=O)c3c2)CC1 [Example 169] | 35 |
| CC(C)[C@H](O)C(=O)N1CCC(c2ccc3ncn(CC(=O)N(C)Cc4ccc(Cl)c(Cl)c4)c(=O)c3c2)CC1 [Example 170] | 14 |
| COCC(=O)N1CCC(c2ccc3ncn(CC(=O)N(C)Cc4ccc(Cl)c(Cl)c4)c(=O)c3c2)CC1 [Example 171] | 3 |
| CN(Cc1ccc(Cl)c(Cl)c1)C(=O)Cn1cnc2ccc(C3CCN(C(=O)C(C)(C)O)CC3)cc2c1=O [Example 172] | 21 |
| COC(C)C(=O)N1CCC(c2ccc3ncn(CC(=O)N(C)Cc4ccc(Cl)c(Cl)c4)c(=O)c3c2)CC1 (centres unmarked) [Example 173] | 8 |
| C[C@@H](O)C(=O)N1CCC(c2ccc3ncn(CC(=O)N(C)Cc4ccc(Cl)c(Cl)c4)c(=O)c3c2)CC1 [Example 174] | 2 |
| C[C@H](O)C(=O)N1CCC(c2ccc3ncn(CC(=O)N(C)Cc4ccc(Cl)c(Cl)c4)c(=O)c3c2)CC1 [Example 175] | 15 |
| CN(Cc1ccc(Cl)c(Cl)c1)C(=O)Cn1cnc2ccc(C3CCN(C(=O)C4(O)CCC4)CC3)cc2c1=O [Example 176] | 46 |
| CN(Cc1ccc(Cl)c(Cl)c1)C(=O)Cn1cnc2ccc(C3CCN(C(=O)C(O)CO)CC3)cc2c1=O (centres unmarked) [Example 177] | 36 |
| CN(Cc1ccc(Cl)c(Cl)c1)C(=O)Cn1cnc2ccc(C3CCN(C(=O)C4COCCO4)CC3)cc2c1=O (centres unmarked) [Example 178] | 34 |
| CN(Cc1ccc(Cl)c(Cl)c1)C(=O)Cn1cnc2ccc(C3CCN(C(=O)C4(O)CC4)CC3)cc2c1=O [Example 179] | 156 |
| CN(Cc1ccc(Cl)c(Cl)c1)C(=O)Cn1cnc2ccc(C3CCN(C(=O)C4CCCO4)CC3)cc2c1=O (centres unmarked) [Example 180] | 5 |
| CN(Cc1ccc(Cl)c(Cl)c1)C(=O)Cn1cnc2ccc(C3CCN(C(=O)C4(C)CCCO4)CC3)cc2c1=O (centres unmarked) [Example 181] | 8 |
| CN(Cc1ccc(Cl)c(Cl)c1)C(=O)Cn1cnc2ccc(C3CCN(C(=O)C4CCOC4)CC3)cc2c1=O (centres unmarked) [Example 182] | 8 |
| CN(Cc1ccc(Cl)c(Cl)c1)C(=O)Cn1cnc2ccc(C3CCN(C(=O)c4cnco4)CC3)cc2c1=O [Example 183] | 28 |
| CC(=O)N1CCC(O)(c2ccc3ncn(CC(=O)N(C)Cc4ccc(Cl)c(Cl)c4)c(=O)c3c2)CC1 [Example 184, 2-[6-(1-Acetyl-4-hydroxypiperidin-4-yl)-4-oxoquinazolin-3-yl]-N-[(3,4-dichlorophenyl)methyl]-N-methylacetamide] | 86 |
| CC(=O)N1CCC(O)(c2ccc3ncn(CC(=O)N(C)Cc4ccc(C#N)c(Cl)c4)c(=O)c3c2)CC1 [Example 185, 2-[6-(1-Acetyl-4-hydroxypiperidin-4-yl)-4-oxoquinazolin-3-yl]-N-[(3-chloro-4-cyanophenyl)methyl]-N-methylacetamide] | 125 |
| CN(Cc1ccc(C#N)c(Cl)c1)C(=O)Cn1cnc2ccc(C3CCN(C(=O)CO[N+](=O)[O-])CC3)cc2c1=O [Example 186, [2-[4-[3-[2-[(3-Chloro-4-cyanophenyl)methyl-methylamino]-2-oxoethyl]-4-oxoquinazolin-6-yl]piperidin-1-yl]-2-oxoethyl]nitrate] | 4 |
| CC(=O)N1CCC(c2cc(F)c3ncn(CC(=O)N(C)Cc4ccc(C#N)c(Cl)c4)c(=O)c3c2)CC1 [Example 187, 2-[6-(1-Acetylpiperidin-4-yl)-8-fluoro-4-oxoquinazolin-3-yl]-N-[(3-chloro-4-cyanophenyl)methyl]-N-methylacetamide] | 1 |
| COCCC(=O)N1CCC(c2cc(F)c3ncn(CC(=O)N(C)Cc4ccc(C#N)c(Cl)c4)c(=O)c3c2)CC1 [Example 188, N-[(3-Chloro-4-cyanophenyl)methyl]-2-[8-fluoro-6-[1-(3-methoxypropanoyl)piperidin-4-yl]-4-oxoquinazolin-3-yl]-N-methylacetamide] | 1 |
| CC(=O)N1CCC(c2cc3c(=O)n(CC(=O)N(C)Cc4ccc(C#N)c(Cl)c4)cnc3cn2)CC1 [Example 189, 2-[6-(1-Acetylpiperidin-4-yl)-4-oxopyrido[3,4-d]pyrimidin-3-yl]-N-[(3-chloro-4-cyanophenyl)methyl]-N-methylacetamide] | 1 |
| COCCC(=O)N1CCC(c2cc3c(=O)n(CC(=O)N(C)Cc4ccc(C#N)c(Cl)c4)cnc3cn2)CC1 [Example 190, N-[(3-Chloro-4-cyanophenyl)methyl]-2-[6-[1-(3-methoxypropanoyl)piperidin-4-yl]-4-oxopyrido[3,4-d]pyrimidin-3-yl]-N-methylacetamide] | 1 |
